Tests used:
[1] = system: VEGF-stimulated HUVEC proliferation (Human Umbilical Vein Endothelial cells); experiment: HUVEC Proliferation Assay; type: cell-based; conditions: VEGF 50 ng/mL, 72 h, CyQuant fluorescent dye, read-out: inhibited VEGF-stimulated HUVEC proliferation at a level
Experimental: Human Umbilical Vein Endothelial cells are purchased from Clonetics, Inc., as cryopreserved cells harvested from a pool of donors. These cells, at passage 1, are thawed and expanded in EBM-2 complete medium, until passage 2 or 3. The cells are trypsinized, washed in DMEM+10% FBS+antibiotics, and spun at 1000 rpm for 10 min. Prior to centrifugation of the cells, a small amount is collected for a cell count. After centrifugation, the medium is discarded, and the cells are resuspended in the appropriate volume of DMEM+10% FBS+antibiotics to achieve a concentration of 3×10^5 cells/mL. Another cell count is performed to confirm the cell concentration. The cells are diluted to 3×10^4 cells/mL in DMEM+10% FBS+antibiotics, and 100 μL of cells are added to a 96-well plate. The cells are incubated at 37° C. for 22 h.
Prior to the completion of the incubation period, compound dilutions are prepared. Five-point, five-fold serial dilutions are prepared in DMSO, at concentrations 400-fold greater than the final concentrations desired. 2.5 μL of each compound dilution are diluted further in a total of 1 mL DMEM+10% FBS+antibiotics (400× dilution). Medium containing 0.25% DMSO is also prepared for the 0 μM compound sample. At the 22 h time point, the medium is removed from the cells, and 100 μL of each compound dilution is added. The cells are incubated at 37° C. for 2-3 h.
During the compound pre-incubation period, the growth factors are diluted to the appropriate concentrations. Solutions of DMEM+10% FBS+antibiotics, containing either VEGF or bFGF at the following concentrations: 50, 10, 2, 0.4, 0.08, and 0 ng/mL are prepared. For the compound-treated cells, solutions of VEGF at 550 ng/mL or bFGF at 220 ng/mL for 50 ng/mL or 20 ng/mL final concentrations, respectively, are prepared since 10 μL of each will be added to the cells (110 μL final volume). At the appropriate time after adding the compounds, the growth factors are added. VEGF is added to one set of plates, while bFGF is added to another set of plates. For the growth factor control curves, the media on wells B4-G6 of plates 1 and 2 are replaced with media containing VEGF or bFGF at the varying concentrations (50-0 ng/mL). The cells are incubated at 37° C. for an additional 72 h.
At the completion of the 72 h incubation period, the medium is removed, and the cells are washed twice with PBS. After the second wash with PBS, the plates are tapped gently to remove excess PBS, and the cells are placed at −70° C. for at least 30 min. The cells are thawed and analyzed using the CyQuant fluorescent dye (Molecular Probes C-7026), following the manufacturer's recommendations. The plates are read on a Victor/Wallac 1420 workstation at 485 nm/530 nm (excitation/emission). Raw data are collected and analyzed using a 4-parameter fit equation in XLFit. IC50 values are then determined.

CYP 2D6 = biological target: T1, CYP 2D6 (Homo sapiens, UniProt P10635); experiment: Human Liver Microsome CYP 2D6 Inhibition; type: in vitro ADME; conditions: human liver microsomes, bufuralol substrate; read-out: inhibited CYP2D6 microsomes, IC50
T1 construct: followed by 555.6 ml of 20 mg/mL HLM (BD Gentest); tissue BD Gentest; host or cells: human liver microsomes
T1 sequence (P10635 whole entry): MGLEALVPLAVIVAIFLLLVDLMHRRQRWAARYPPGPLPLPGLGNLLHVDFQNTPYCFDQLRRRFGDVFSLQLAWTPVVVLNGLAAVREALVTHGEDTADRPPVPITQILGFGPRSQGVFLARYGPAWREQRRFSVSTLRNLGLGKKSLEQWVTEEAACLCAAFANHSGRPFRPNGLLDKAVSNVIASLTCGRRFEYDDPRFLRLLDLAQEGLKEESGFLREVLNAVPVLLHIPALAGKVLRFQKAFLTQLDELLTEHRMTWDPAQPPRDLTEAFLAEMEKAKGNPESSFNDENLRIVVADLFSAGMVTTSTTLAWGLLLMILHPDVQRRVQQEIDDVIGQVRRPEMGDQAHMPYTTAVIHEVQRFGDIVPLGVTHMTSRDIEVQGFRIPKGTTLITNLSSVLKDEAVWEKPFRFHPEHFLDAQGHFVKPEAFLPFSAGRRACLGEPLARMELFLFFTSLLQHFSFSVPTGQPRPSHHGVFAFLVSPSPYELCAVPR
Experimental: Determining the IC-50 for Human Liver Microsome CYP 2D6 Inhibition
Postassium Phosphate Buffer pH 7.4 (39.333 mL) is chilled in an ice bath and added to a 50 ml plastic tube. A 3.2 mM bufuralol solution is prepared. 111.1 ul of 3.2 mM bufuralol is added to the buffer followed by 555.6 ml of 20 mg/mL HLM (BD Gentest). The incubation mixture was gently inverted and equilibrated at 37° C. for 5 min. A stock inhibitor solution is prepared, such as in DMSO. Incubation mixture (801 ul) is added into 96-well, 1.2 mL plastic tubes. Inhibitor is added at various concentrations (e.g. 30 μM to […]). The tubes are sealed and mix by inverting 5 times gently. The incubation mixture containing inhibitor (270 μL) is added by aliquot into wells of a 1 mL, 96-well block (duplicate). The block is placed into a 37° C. water bath and equilibrated for 3 minutes. 10 mM NADPH (30 ml) is added to all samples. After 5 min, the reactions are stopped by adding 300 ml of Quench Solution [0.1% TFA in CH3CN]. 1′-OH-bufuralol-d9 (750 ng/mL 30 μL) is added, the block is gently vortexed then centrifuged at 3000 rpm for 10 min at 4° C. 50 μL of supernatant from all samples is added by aliquot into a shorter, 96-well block. The aliquoted supernatants are pooled with other assay(s) and HPLC Grade Water (50 μL) is added to all samples. After covering and shaking by vortex gently for 2 minutes, the solutions were analyzed by LC-MS (API 3000, 5% MeOH w/0.1% AcOH to 95% MeOH w/0.1% AcOH). 500 nM quinidine is used as a control.

| SMILES | IC50 [1] [nM] | IC50 (CYP 2D6) [nM] |
| --- | --- | --- |
| CC1(C)CN(C(=O)C2CCCO2)Cc2cc(NC(=O)c3cccnc3NCc3ccnc4[nH]ccc34)ccc21 (single isomer, unassigned) [Example 14, N-{4,4-Dimethyl-2-[(2R*)-tetrahydrofuran-2-ylcarbonyl]-1,2,3,4-tetrahydroisoquinolin-7-yl}-2-[(1H-pyrrolo[2,3-b]pyridin-4-ylmethyl)amino]nicotinamide] | < 500 | > 20000 |
| CC(=O)N1CC(C)(C)c2ccc(NC(=O)c3cccnc3NCc3ccnc4[nH]ccc34)cc21 [Example 6, N-(1-Acetyl-3,3-dimethyl-2,3-dihydro-1H-indol-6-yl)-2-[(1H-pyrrolo[2,3-b]pyridin-4-ylmethyl)amino]nicotinamide] | < 500 | > 20000 |
| CC(=O)N1CC2(CC2)c2ccc(NC(=O)c3cccnc3NCc3ccnc4[nH]ccc34)cc21 [Example 7] | < 500 | > 20000 |
| CC1(C)CC(=O)Nc2cc(NC(=O)c3cccnc3NCc3ccnc4[nH]ccc34)ccc21 [Example 12, N-(4,4-Dimethyl-2-oxo-1,2,3,4-tetrahydroquinolin-7-yl)-2-[(1H-pyrrolo[2,3-b]pyridin-4-ylmethyl)amino]nicotinamide] | < 500 | > 20000 |
| CC(=O)N1Cc2cc(NC(=O)c3cccnc3NCc3ccnc4[nH]ccc34)ccc2C(C)(C)C1 [Example 13, N-(2-Acetyl-4,4-dimethyl-1,2,3,4-tetrahydroisoquinolin-7-yl)-2-[(1H-pyrrolo[2,3-b]pyridin-4-ylmethyl)amino]nicotinamide] | < 500 | > 20000 |
| CC1(C)CN(C(=O)CN)Cc2cc(NC(=O)c3cccnc3NCc3ccnc4[nH]ccc34)ccc21 [Example 15, N-(2-Glycyl-4,4-dimethyl-1,2,3,4-tetrahydroisoquinolin-7-yl)-2-[(1H-pyrrolo[2,3-b]pyridin-4-ylmethyl)amino]nicotinamide] |  | > 20000 |
| O=C(Nc1ccc(Cl)c(C(F)(F)F)c1)c1cc(F)cnc1NCc1ccnc2[nH]ccc12 [Example 90, N-(4-chloro-3-(trifluoromethyl)phenyl)-5-fluoro-2-((1H-pyrrolo[2,3-b]pyridin-4-ylmethyl)amino)-3-pyridinecarboxamide] | < 500 |  |
| O=C(Nc1ccc(Cl)cc1)c1cc(F)cnc1NCc1ccnc2[nH]ccc12 [Example 91, N-(4-chlorophenyl)-5-fluoro-2-((1H-pyrrolo[2,3-b]pyridin-4-ylmethyl)amino)-3-pyridinecarboxamide] | < 500 |  |
| O=C(Nc1ccc(C(F)(F)F)c(Cl)c1)c1cc(F)cnc1NCc1ccnc2[nH]ccc12 [Example 100, N-(3-chloro-4-(trifluoromethyl)phenyl)-5-fluoro-2-((1H-pyrrolo[2,3-b]pyridin-4-ylmethyl)amino)-3-pyridinecarboxamide] | < 500 |  |
| CC1(C)CNCc2cc(NC(=O)c3cc(F)cnc3NCc3ccnc4[nH]ccc34)ccc21 [Example 101, N-(4,4-dimethyl-1,2,3,4-tetrahydro-7-isoquinolinyl)-5-fluoro-2-((1H-pyrrolo[2,3-b]pyridin-4-ylmethyl)amino)-3-pyridinecarboxamide] | < 500 |  |
| CC1Sc2ccc(NC(=O)c3cc(F)cnc3NCc3ccnc4[nH]ccc34)cc2NC1=O (stereo not drawn) [Example 108, 5-fluoro-N-(2-methyl-3-oxo-3,4-dihydro-2H-1,4-benzothiazin-6-yl)-2-((1H-pyrrolo[2,3-b]pyridin-4-ylmethyl)amino)-3-pyridinecarboxamide] | < 500 |  |
| Cc1ccc(NC(=O)c2cc(F)cnc2NCc2ccnc3[nH]ccc23)cc1 [Example 109, 5-fluoro-N-(4-methylphenyl)-2-((1H-pyrrolo[2,3-b]pyridin-4-ylmethyl)amino)-3-pyridinecarboxamide] | < 500 |  |
| Cc1ccc(NC(=O)c2cc(F)cnc2NCc2ccnc3[nH]ccc23)cc1Cl [Example 110, N-(3-chloro-4-methylphenyl)-5-fluoro-2-((1H-pyrrolo[2,3-b]pyridin-4-ylmethyl)amino)-3-pyridinecarboxamide] | < 500 |  |
| Cc1ccc(NC(=O)c2cc(F)cnc2NCc2ccnc3[nH]ccc23)cc1F [Example 111, 5-fluoro-N-(3-fluoro-4-methylphenyl)-2-((1H-pyrrolo[2,3-b]pyridin-4-ylmethyl)amino)-3-pyridinecarboxamide] | < 500 |  |
| CN(C)c1nc2cc(NC(=O)c3cc(F)cnc3NCc3ccnc4[nH]ccc34)ccc2s1 [Example 114, N-(2-(dimethylamino)-1,3-benzothiazol-5-yl)-5-fluoro-2-((1H-pyrrolo[2,3-b]pyridin-4-ylmethyl)amino)-3-pyridinecarboxamide] | < 500 |  |
| Cc1nc2cc(NC(=O)c3cc(F)cnc3NCc3ccnc4c3CCN4)ccc2s1 [Example 115, 2-((2,3-dihydro-1H-pyrrolo[2,3-b]pyridin-4-ylmethyl)amino)-5-fluoro-N-(2-methyl-1,3-benzothiazol-5-yl)-3-pyridinecarboxamide] | < 500 |  |
| O=C(Nc1ccc(Cl)c(C(F)(F)F)c1)c1cc(F)cnc1NCc1ccnc2[nH]ncc12 [Example 119, N-(4-Chloro-3-(trifluoromethyl)phenyl)-5-fluoro-2-((1H-pyrazolo[3,4-b]pyridin-4-ylmethyl)amino)-3-pyridinecarboxamide] | < 500 |  |
| O=C(Nc1cccc(C(F)(F)F)c1)c1cc(F)cnc1NCc1ccnc2[nH]ncc12 [Example 122, 5-Fluoro-2-((1H-pyrazolo[3,4-b]pyridin-4-ylmethyl)amino)-N-(3-(trifluoromethyl)phenyl)-3-pyridinecarboxamide] | < 500 |  |
| CC(C)Oc1ccc(NC(=O)c2cc(F)cnc2NCc2ccnc3[nH]ncc23)cc1 [Example 124, 5-Fluoro-N-(4-((1-methylethyl)oxy)phenyl)-2-((1H-pyrazolo[3,4-b]pyridin-4-ylmethyl)amino)-3-pyridinecarboxamide] | < 500 |  |
| O=C(Nc1ccc(C(F)(F)F)c(F)c1)c1cc(F)cnc1NCc1ccnc2[nH]ncc12 [Example 128, 5-Fluoro-N-(3-fluoro-4-(trifluoromethyl)phenyl)-2-((1H-pyrazolo[3,4-b]pyridin-4-ylmethyl)amino)-3-pyridinecarboxamide] | < 500 |  |
| CC1(C)CNCc2cc(NC(=O)c3cc(F)cnc3NCc3ccnc4[nH]ncc34)ccc21 [Example 129, N-(4,4-Dimethyl-1,2,3,4-tetrahydro-7-isoquinolinyl)-5-fluoro-2-((1H-pyrazolo[3,4-b]pyridin-4-ylmethyl)amino)-3-pyridinecarboxamide] | < 500 |  |
| CC1(C)CCNc2cc(NC(=O)c3cccnc3NCc3ncnc4[nH]ccc34)ccc21 [Example 131, N-(4,4-Dimethyl-1,2,3,4-tetrahydro-7-quinolinyl)-2-((7H-pyrrolo[2,3-d]pyrimidin-4-ylmethyl)amino)-3-pyridinecarboxamide] | < 500 |  |

From patent US8247556B2, “Method for preparing 6-substituted-7-aza-indoles” (Amgen Inc., priority 2005, dated 2012)
